In patent publication US20210403567A1, “METHODS OF TREATING CERVICAL CANCER BY ADMINISTERING A PD-1 INHIBITOR” (priority 2020, published 2021):
Where two headings read alike, the source gives them in different places.

What was measured:
[1] = system: recurrent or metastatic cervical cancer that has progressed after first-line platinum-based treatment
cervical cancer = conditions: durable responses; cited from earlier work
[2] = cemiplimab vs Gemcitabine (n = 108 vs 121)
[3] = cemiplimab vs Irinotecan (n = 26 vs 19)
[4] = cemiplimab vs Pemetrexed (n = 119 vs […])
[5] = cemiplimab vs Topotecan (n = 20 vs 21)
[6] = cemiplimab vs Vinorelbine (n = 31 vs 32)
[7] = subgroup with IC chemotherapy selected prior to randomisation: Gemcitabine (n = 108 vs 121)
[8] = subgroup with IC chemotherapy selected prior to randomisation: Irinotecan (n = 26 vs 19)

Substance: cemiplimab
- OS HR, cemiplimab vs individual IC chemotherapy [1, 2]: HR; 0.76
- PFS HR, cemiplimab vs individual IC chemotherapy [1, 2]: HR; 0.73
- OS HR, cemiplimab vs individual IC chemotherapy [1, 3]: HR; 0.69
- PFS HR, cemiplimab vs individual IC chemotherapy [1, 3]: HR; 0.77
- OS HR, cemiplimab vs individual IC chemotherapy [1, 4]: HR; 0.71
- PFS HR, cemiplimab vs individual IC chemotherapy [1, 4]: HR; 0.70
- OS HR, cemiplimab vs individual IC chemotherapy [1, 5]: HR; 0.78
- PFS HR, cemiplimab vs individual IC chemotherapy [1, 5]: HR; 0.90
- OS HR, cemiplimab vs individual IC chemotherapy [1, 6]: HR; 0.77
- PFS HR, cemiplimab vs individual IC chemotherapy [1, 6]: HR; 1.21
- OS, PFS and ORR versus each IC chemotherapy treatment ([1]; gemcitabine, pemetrexed, vinorelbine, topotecan, irinotecan subgroups): improvements with cemiplimab versus each IC chemotherapy treatment
- Median OS (95% CI) [1, 7]: 10.7 (9.2-13.3) months
- Median PFS (95% CI) [1, 7]: 2.8 (2.6-4.3) months
- ORR [1, 7]: 17.6%
- Median OS (95% CI) [1, 8]: 15.8 (11.2-NE) months
- Median PFS (95% CI) [1, 8]: 6.9 (1.9-13.8) months
- ORR [1, 8]: 23.1%
- responding patients in dose escalation (cervical cancer): 2/3
